Key:
h-GABA-A α5β3γ2 [1] = target: T1, h-GABA-A α5β3γ2 (Homo sapiens, UniProt P18507+P31644); assay: [3H]flumazenil competition binding assay on membranes of HEK293 cells expressing GABAA receptors
T1 construct: expressed in transfected cells; host or cells: Xenopus laevis oocytes, micro-injected with subunit RNA
Protocol: The affinity of compounds at GABAA receptor subtypes was measured by competition for [3H]flumazenil (85 Ci/mmol; Roche) binding to HEK293 cells expressing rat (stably transfected) or human (transiently transfected) receptors of composition α1β3γ2, α2β3γ2, α3β3γ2 and α5β3γ2.
Cell pellets were suspended in Krebs-tris buffer (4.8 mM KCl, 1.2 mM CaCl2, 1.2 mM MgCl2, 120 mM NaCl, 15 mM Tris; pH 7.5; binding assay buffer), homogenized by polytron for ca. 20 sec on ice and centrifuged for 60 min at 4° C. (50000 g; Sorvall, rotor: SM24=20000 rpm). The cell pellets were resuspended in Krebs-tris buffer and homogenized by polytron for ca. 15 sec on ice. Protein was measured (Bradford method, Bio-Rad) and aliquots of 1 mL were prepared and stored at −80° C.
Radioligand binding assays were carried out in a volume of […] (96-well plates) which contained […] of cell membranes, [^3H]-Flumazenil at a concentration of 1 nM for α1, α2, α3 subunits and 0.5 nM for α5 subunits and the test compound in the range of […]. Nonspecific binding was defined by 10^−5 M diazepam and typically represented less than 5% of the total binding. Assays were incubated to equilibrium for 1 hour at 4° C. and harvested onto GF/C uni-filters (Packard) by filtration using a Packard harvester and washing with ice-cold wash buffer (50 mM Tris; pH 7.5). After drying, filter-retained radioactivity was detected by liquid scintillation counting. Ki values were calculated using Excel-Fit (Microsoft) and are the means of two determinations.
In a preferred embodiment the compounds of the invention are binding selective for the α5 subunit relative to the α1, α2 and α3 subunit. Representative test results, obtained by the above described assay measuring binding affinity to HEK293 cells expressing human (h) receptors, are shown in the Table below.

h-GABA-A α5β3γ2 [2] = target: T1, h-GABA-A α5β3γ2; assay: Two-electrode voltage clamp electrophysiology in Xenopus oocytes expressing GABAA receptors (modulation of GABA EC20 current); format: cell-based
Protocol: Xenopus laevis oocytes at maturation stages V-VI were used for the expression of cloned mRNA encoding GABAA receptor subunits. Oocytes ready for RNA micro-injection were bought from Ecocyte, Castrop-Rauxel, Germany and stored in modified Barth's medium (composition in mM: NaCl 88, KCl 1, NaHCO3 2.4, HEPES 10, MgSO4 0.82, CaNO3 0.33, CaCl2 0.33, pH=7.5) at 20° C. until the experiment.
Oocytes were plated in 96-well plates to be used in an automated instrument (Robo-ocyte, MultiChannelSystems, Reutlingen, Germany) for microinjection and electrophysiological recordings. Approximately 50 nl of an aqueous solution containing the RNA transcripts for the subunits of the desired GABAA receptor was injected into each oocyte. RNA concentrations ranged between 0.3 and 16 ng/μl/subunit and were adjusted in pilot experiments to obtain GABA responses of a suitable size and a maximal effect of the reference modulator, Beta-CCM (3-CCM), a betacarboline negative allosteric modulator (NAM) at the GABAA receptor benzodiazepine (BZD) binding site or Midazolam, a benzodiazepine positive allosteric modulator (PAM) at the GABAA receptor benzodiazepine (BZD) binding site. The concentration of the γ2 subunit encoding RNA usually was 5- to 10-fold higher than the RNAs encoding the other subunits. Oocytes were kept in modified Barth's medium (composition in mM: NaCl 88, KCl 1, NaHCO3 4, HEPES 10, MgSO4 0.82, CaNO3 0.33, CaCl2 0.33, pH=7.5) at 20° C. until the experiment.
Electrophysiological experiments were performed on days 3 to 5 after the micro-injection of mRNA. During the experiment the oocytes were constantly superfused by a solution containing (in mM) NaCl 90, KCl 1, HEPES 5, MgCl2 1, CaCl2 1 (pH 7.4). Oocytes were impaled by two glass microelectrodes (resistance: 0.4 MQ) which were filled with a solution containing KCl 1M+K-acetate 1.5 M and voltage-clamped to −80 mV. The recordings were performed at room temperature using the Roboocyte two-electrode voltage clamp system (Multichannelsystem). After an initial equilibration period of 1.5 min GABA was added for 1.5 min at a concentration evoking approximately 20% of a maximal current response (EC20). After another rest interval of 2.5 min GABA was again added evoking a response of similar amplitude and shape. 0.5 min after the onset of this second GABA application the test compound, at a concentration corresponding to approximatively 30 fold its Ki, was added while GABA was still present. Current traces were recorded at a digitization rate of 10 Hz during and shortly before and after the GABA application.
Each compound and concentration was tested on at least 3 oocytes. Different oocytes were used for different compound concentrations. β-CCM, a negative allosteric modulator, or Midazolam, a positive allosteric modulators, were tested on a few (3-6) oocytes on each 96-well plate for a positive control at a maximally effective. β-CCM inhibited the GABA-evoked current by approximatively 50% (Fold increase 0.5), while Midazolam potentiated the GABA-induced current by approximatively 150% (Fold increase 2.5).
For the analysis, the digitized current traces of the first and second GABA response were superimposed and, if necessary, rescaled to equal maximal amplitudes. The ratio between the two responses during the time interval of test compound application was calculated point by point. The extremum of the resulting “ratio trace” was taken as the efficacy (“Fold increase”) of the compound expressed as “% modulation of GABA EC20” (100*(Fold increase-1)).

[3] = Table 1, displacement of [3H]-Flumazenil (0.5 nM), HEK293 cells expressing human receptors, means of two determinations
[4] = Table 1, % modulation of GABA EC20 = 100*(Fold increase-1)
[5] = Table 1, Xenopus oocytes, GABA EC20, test compound at approximatively 30 fold its Ki
[6] = Table 2, reference compounds, displacement of [3H]-Flumazenil
[7] = Table 2, reference compounds, % modulation of GABA EC20
[8] = Table 2, reference compounds, GABAA α5β3γ2 overexpressing oocytes, GABA EC20

SMILES | Ki (h-GABA-A α5β3γ2 [1]; [3]) | Efficacy (GABA) % (h-GABA-A α5β3γ2 [2]; [4]) | Fold increase h-GABA-A α5β3γ2 oocyte (h-GABA-A α5β3γ2 [2]; [5]) | Ki (h-GABA-A α5β3γ2 [1]; [6]) | Efficacy (GABA) % (h-GABA-A α5β3γ2 [2]; [7]) | Fold increase h-GABA-A α5β3γ2 oocyte (h-GABA-A α5β3γ2 [2]; [8])
Cn1nnc(-c2ccc(Cl)cc2F)c1Cn1ncc(N2CCOCC2)cc1=O [Example 16, 2-[[5-(4-chloro-2-fluoro-phenyl)-3-methyl-triazol-4-yl]methyl]-5-morpholino-pyridazin-3-one] | 2.2 nM | 81% | 1.81 |  |  | 
Cn1nnc(-c2ccc(F)cn2)c1COc1ccc(C(=O)NN2CCOCC2)nn1 [RO-052, reference compound] |  |  |  | 33.4 nM | −15% | 0.85
C[C@@H]1CN(c2cnn(Cc3c(-c4ccc(Cl)cc4F)nnn3C)c(=O)c2)CCO1 [Example 46, 2-((5-(4-chloro-2-fluoro-phenyl)-3-methyl-triazol-4-yl)methyl)-5-((2R)-2-methylmorpholin-4-yl)pyridazin-3-one] | 1.6 nM | 86% | 1.86 |  |  | 
Cn1nnc(-c2ccc(Cl)cc2F)c1Cn1ncc(N2CC(Oc3ccnc(Cl)c3)C2)cc1=O [Example 55, 2-[[5-(4-chloro-2-fluoro-phenyl)-3-methyl-triazol-4-yl]methyl]-5-[3-[(2-chloro-4-pyridyl)oxy]azetidin-1-yl]pyridazin-3-one] | 5.8 nM | 111% | 2.11 |  |  | 
CCn1nnc(-c2ccc(Cl)cc2F)c1Cn1ncc(N2CC(Oc3ccc(Cl)nc3)C2)cc1=O [Example 101, 2-[[5-(4-chloro-2-fluoro-phenyl)-3-ethyl-triazol-4-yl]methyl]-5-[3-[(6-chloro-3-pyridyl)oxy]azetidin-1-yl]pyridazin-3-one] | 9.2 nM | 126% | 2.26 |  |  | 
Cn1nnc(-c2ccc(Cl)cc2F)c1Cn1ncc(N2CCN(C3CC3)CC2)cc1=O [Example 17, 2-[[5-(4-chloro-2-fluoro-phenyl)-3-methyl-triazol-4-yl]methyl]-5-(4-cyclopropyl-piperazin-1-yl)pyridazin-3-one] | 12 nM | 75% | 1.75 |  |  | 
CCn1nnc(-c2ccc(Cl)cc2F)c1Cn1ncc(N2CC3(CC[C@@H](F)CO3)C2)cc1=O [Example 125, (R)-2-((4-(4-chloro-2-fluorophenyl)-1-ethyl-1H-1,2,3-triazol-5-yl)methyl)-5-(7-fluoro-5-oxa-2-azaspiro[3.5]nonan-2-yl)pyridazin-3(2H)-one] | 25.3 nM | 69% | 1.69 |  |  | 
Cc1nnn(-c2ccc(Cl)cc2F)c1Cn1ncc(N2CCO[C@H](C)C2)cc1=O [Example 36, 2-[[3-(4-chloro-2-fluoro-phenyl)-5-methyl-triazol-4-yl]methyl]-5-[(2R)-2-methylmorpholin-4-yl]pyridazin-3-one] | 12.4 nM | 106% | 2.06 |  |  | 
Cn1nnc(-c2ccc(Cl)cc2F)c1Cn1ncc(-c2cnn(C3CC3)c2)cc1=O [Example 67, 2-((5-(4-chloro-2-fluoro-phenyl)-3-methyl-triazol-4-yl)methyl)-5-(1-cyclopropylpyrazol-4-yl)pyridazin-3-one] | 11 nM | 55% | 1.55 |  |  | 
CN(C)c1cnn(Cc2c(-c3ccc(Cl)cc3F)nnn2C)c(=O)c1 [Example 15, 2-[[5-(4-chloro-2-fluoro-phenyl)-3-methyl-triazol-4-yl]methyl]-5-(dimethylamino)pyridazin-3-one] | 3.8 nM | 48% | 1.48 |  |  | 
Cc1ccc(-n2nnc(C)c2Cn2ncc(N3CCC[C@H]3C)cc2=O)cn1 [Example 25, 2-[[5-methyl-3-(6-methyl-3-pyridyl)triazol-4-yl]methyl]-5-[(2R)-2-methylpyrrolidin-1-yl]pyridazin-3-one] | 4.4 nM | 97% | 1.97 |  |  | 
CCn1nnc(-c2ccc(Cl)cc2F)c1Cn1ncc(N2CC(OCC(F)(F)F)C2)cc1=O [Example 87, 2-[[5-(4-chloro-2-fluoro-phenyl)-3-ethyl-triazol-4-yl]methyl]-5-[3-(2,2,2-trifluoro-ethoxy)azetidin-1-yl]pyridazin-3-one] | 12.5 nM | 115% | 2.15 |  |  | 
COc1ncc(-c2cnn(Cc3c(-c4ccc(C)nc4)nnn3C)c(=O)c2)cc1Cl [Example 82, 5-(5-chloro-6-methoxy-3-pyridyl)-2-((3-methyl-5-(6-methyl-3-pyridyl)triazol-4-yl)methyl)pyridazin-3-one] | 31 nM | 236% | 3.36 |  |  | 
Cc1nnn(-c2ccc(Cl)cc2F)c1Cn1ncc(-c2ccnc(C(F)(F)F)c2)cc1=O [Example 57, 2-((3-(4-chloro-2-fluoro-phenyl)-5-methyl-triazol-4-yl)methyl)-5-(2-(trifluoromethyl)-4-pyridyl)pyridazin-3-one] | 43 nM | 64% | 1.64 |  |  | 
Cn1nnc(-c2ccc(F)cc2)c1COc1ccc(C(=O)NN2CCOCC2)nn1 [RO-045, reference compound] |  |  |  | 53.2 nM | −38% | 0.62
Cc1nnn(-c2ccc(Cl)cc2F)c1Cn1ncc(N2C[C@@H](C)O[C@@H](C)C2)cc1=O [Example 7, 2-((3-(4-chloro-2-fluoro-phenyl)-5-methyl-triazol-4-yl)methyl)-5-((2S,6R)-2,6-dimethylmorpholin-4-yl)pyridazin-3-one] | 5.8 nM | 164% | 2.64 |  |  | 
COc1ncc(-c2cnn(Cc3c(-c4ccc(C)nn4)nnn3C)c(=O)c2)cc1Cl [Example 114, 5-(5-chloro-6-methoxy-3-pyridyl)-2-[[3-methyl-5-(6-methylpyridazin-3-yl)triazol-4-yl]methyl]pyridazin-3-one] | 3.6 nM | 154% |  |  |  | 

— patent US20230135093A1, “TRIAZOLYL DERIVATIVES AS GABA A ALPHA5 PAM” (Hoffmann-La Roche Inc., priority 2020, published 2023)
